Experimental data published in article PMC4585962, “A peptide factor secreted by Staphylococcus pseudintermedius exhibits properties of both bacteriocins and virulence factors” (Scientific Reports, 2015).
No end group written: not given here. *: point of attachment. For = O=C*

Tests used:
[1] = Temperature stability, residual bactericidal activity; assay type: physicochemical; conditions: 30 μM in PBS, full cycle of autoclaving, 20 min at 121 °C; radial diffusion assay on B. subtilis; 100% = untreated BacSp222; triplicate ± SD
Experimental: (§1) The bactericidal activity of BacSp222 was also determined using the radial diffusion assay. In TSB agar (1%, w/v) containing a 200× diluted overnight culture of Bacillus subtilis ATCC 6633, wells of 2.4-mm diameter were created by drilling out the agar and filling the hole with 10 μl of the BacSp222 preparation for testing. Following overnight incubation at 37 °C, the bactericidal activity was measured as the area of the inhibition zones.
The temperature stability of BacSp222 (30 μM final concentration) was determined in PBS. The solution was incubated for 1 or 3 h at 72 °C (typical temperature of pasteurization) or at 100 °C. Independently, a solution of bacteriocin was also subjected to a full cycle of autoclaving (20 min at 121 °C). The susceptibility of BacSp222 to proteolysis was verified using S. aureus staphopain C and V8 peptidase, human neutrophil elastase, human cathepsin G (Biocentrum), bovine TPCK-treated trypsin, pepsin from porcine gastric mucosa (Sigma), and proteinase K (A&A Biotechnology). […] The residual activity was determined with the radial diffusion assay using Bacillus subtilis as an indicator strain. […]

[2] = tested on: adipose-derived stem cells (ASC); experiment: Cytotoxicity, LDH and MTT assays; assay type: cell-based; conditions: 4 h exposure, said to be similar to the other cell types (Fig. S7)
Experimental: Human skin fibroblasts (HSF, ATCC CRL-2522), adipose-derived stem cells (ASCs, ATCC PCS-500-011), and HeLa human epithelioid cervix carcinoma cells (ATCC CCL-2) were maintained in Dulbecco’s modified Eagle’s medium (DMEM, Sigma) containing 1 g/l glucose, 10% (v/v) foetal bovine serum (FBS), 1 U/ml penicillin, 1 μg/ml streptomycin, and 2.5 μg/ml amphotericin B. Murine P388/D1 monocyte/macrophage cells (ATCC CCL-46) and murine RAW264.7 macrophage-like cells (ATCC TIB-71) were cultured in DMEM containing 4.5 g/l glucose, 5% (v/v) FBS, and antibiotics, as indicated above. Keratinocytes from human skin were grown in KBM Gold Medium (Lonza). All cells were incubated in standard conditions (5% CO2, 37 °C, >95% humidity). […] After a 30-min incubation (RT, in the dark), the reaction was stopped, and the absorbance was measured with a microplate reader (PowerWave X, BioTek Instruments) at 490 nm, followed by subtraction of the absorbance reference value at 690 nm. […] The absorbance of solubilized purple formazan was measured at 540 nm, followed by subtraction of the absorbance reference value at 690 nm. […] The amount of released haemoglobin was spectrophotometrically determined at 540 nm and compared with a positive control (erythrocytes lysed with 1% sodium dodecyl sulphate).

[3] = target: T1, human neutrophil elastase (Homo sapiens, UniProt P08246); experiment: Susceptibility to proteolysis, residual bactericidal activity; assay type: in vitro ADME; conditions: 30 μM peptide, 100 mM Tris-HCl pH 8.0, enzyme:peptide 1:50 or 1:10 (w/w), 3 hours, 37 °C; residual activity by radial diffusion assay on B. subtilis; triplicate
T1 construct: purchased Biocentrum
Experimental: as §1
The temperature stability of BacSp222 (30 μM final concentration) was determined in PBS. The solution was incubated for 1 or 3 h at 72 °C (typical temperature of pasteurization) or at 100 °C. Independently, a solution of bacteriocin was also subjected to a full cycle of autoclaving (20 min at 121 °C). The susceptibility of BacSp222 to proteolysis was verified using S. aureus staphopain C and V8 peptidase, human neutrophil elastase, human cathepsin G (Biocentrum), bovine TPCK-treated trypsin, pepsin from porcine gastric mucosa (Sigma), and proteinase K (A&A Biotechnology). The dried samples of BacSp222 were dissolved to a final concentration of 30 μM in the following buffers: 100 mM Tris-HCl pH 8.0 containing 5 mM CaCl2 (for trypsin and proteinase K), 100 mM Tris-HCl pH 7.5 containing 5 mM cysteine hydrochloride and 5 mM EDTA (for staphopain C), 100 mM Tris-HCl pH 8.0 (for elastase), 100 mM Tris-HCl pH 7.5 containing 500 mM NaCl (for cathepsin G), 100 mM sodium phosphate pH 7.8 (for V8 peptidase), and 100 mM ammonium acetate pH 4.0 (for pepsin). The peptidases were added at 1:50 or 1:10 (enzyme:BacSp222) ratios by weight, and the mixtures were incubated for 1 or 3 h at 37 °C. The residual activity was determined with the radial diffusion assay using Bacillus subtilis as an indicator strain. All of the above experiments were performed in triplicate.

S. aureus RN4220 (pCN68) = experiment: GFP release assay; assay type: cell-based, Staphylococcus aureus; conditions: 2 × 10^6 CFU in PBS, 1 h 37 °C, 0.23 to 15 μM BacSp222, fluorescence of supernatant 480/510 nm
Experimental: The bacteria transformed with GFP-encoding plasmids (pCN68[59] for S. aureus RN4220; pALCP2G[60] for B. subtilis 1A751[61] and E. coli DH5α) were grown overnight in TSB supplemented with appropriate antibiotics, washed twice and finally suspended in PBS. Fifty microliters of the suspensions containing 2 × 10^6 CFU of bacteria were then incubated for 1 h at 37 °C with serial dilutions of BacSp222 at concentrations ranging from 0.23 to 15 μM. Then, the bacteria were spun down, and the fluorescence in the supernatant was determined (Synergy H1 microplate reader, BioTek, 480/510 nm excitation/emission wavelengths). As the controls for 100% GFP release, S. aureus and B. subtilis were lysed using lysostaphin and chicken egg white lysozyme (Sigma), respectively, whereas the E. coli cells were disrupted by ultrasonication.

T1 sequence (P08246 30-267): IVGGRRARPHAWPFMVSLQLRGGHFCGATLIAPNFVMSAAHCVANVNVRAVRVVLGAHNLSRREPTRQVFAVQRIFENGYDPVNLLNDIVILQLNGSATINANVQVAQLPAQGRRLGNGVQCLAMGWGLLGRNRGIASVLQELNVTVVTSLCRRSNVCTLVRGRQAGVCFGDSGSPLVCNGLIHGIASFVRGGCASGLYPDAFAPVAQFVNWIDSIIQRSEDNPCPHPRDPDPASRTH

For-MAGLLRFLLSKGRALYNWAKSHVGKVWEWLKSGATYEQIKEWIENALGWR [BacSp222]
activity against the indicator strain after autoclaving [1]: 55 ± 8.8% | cytotoxic effect [2]: sigmoidal, dose-dependent cytotoxic effect | activity of BacSp222 after incubation with the enzyme [3]: not significantly reduced | leakage of GFP from recombinant cells (S. aureus RN4220 (pCN68)): dose-dependent leakage of GFP was observed
